Measurements published in the NIST ThermoML archive (doi:10.1007/s10765-007-0223-x).
± gives the expanded uncertainty stated by the source.

Assay: xn = mol fraction of the nth substance listed
Details: 101 kPa, Liquid; for speed of sound: Single path-length method

## CCc1ccccc1 [ethylbenzene] + COC(C)(C)C
288.15 K, x2 = 0
  speed of sound: 1360.7 ± 2.1 m/s
  mass density: 871.245 ± 0.36 kg/m3
288.15 K, x2 = 0.046
  speed of sound: 1348.3 ± 2.1 m/s
  mass density: 866.075 ± 0.39 kg/m3
288.15 K, x2 = 0.106
  speed of sound: 1334.4 ± 2.1 m/s
  mass density: 859.155 ± 0.4 kg/m3
288.15 K, x2 = 0.212
  speed of sound: 1307.2 ± 2.1 m/s
  mass density: 846.925 ± 0.42 kg/m3
288.15 K, x2 = 0.299
  speed of sound: 1284.6 ± 2.1 m/s
  mass density: 836.536 ± 0.43 kg/m3
288.15 K, x2 = 0.402
  speed of sound: 1256.7 ± 2.1 m/s
  mass density: 823.953 ± 0.45 kg/m3
288.15 K, x2 = 0.503
  speed of sound: 1231.4 ± 2.1 m/s
  mass density: 812.763 ± 0.47 kg/m3
288.15 K, x2 = 0.6
  speed of sound: 1201.3 ± 2.1 m/s
  mass density: 799.067 ± 0.49 kg/m3
288.15 K, x2 = 0.701
  speed of sound: 1171.9 ± 2.1 m/s
  mass density: 785.93 ± 0.51 kg/m3
288.15 K, x2 = 0.822
  speed of sound: 1136.2 ± 2.1 m/s
  mass density: 769.744 ± 0.53 kg/m3
288.15 K, x2 = 0.899
  speed of sound: 1112.7 ± 2.1 m/s
  mass density: 759.058 ± 0.55 kg/m3
288.15 K, x2 = 0.948
  speed of sound: 1097.3 ± 2.1 m/s
  mass density: 752.102 ± 0.56 kg/m3
290.65 K, x2 = 0
  speed of sound: 1349.9 ± 2.1 m/s
  mass density: 869.052 ± 0.37 kg/m3
290.65 K, x2 = 0.046
  speed of sound: 1337.6 ± 2.1 m/s
  mass density: 863.868 ± 0.39 kg/m3
290.65 K, x2 = 0.106
  speed of sound: 1323.4 ± 2.1 m/s
  mass density: 856.925 ± 0.4 kg/m3
290.65 K, x2 = 0.212
  speed of sound: 1296.3 ± 2.1 m/s
  mass density: 844.671 ± 0.42 kg/m3
290.65 K, x2 = 0.299
  speed of sound: 1273.7 ± 2.1 m/s
  mass density: 834.249 ± 0.44 kg/m3
290.65 K, x2 = 0.402
  speed of sound: 1245.6 ± 2.1 m/s
  mass density: 821.631 ± 0.45 kg/m3
290.65 K, x2 = 0.503
  speed of sound: 1220.2 ± 2.1 m/s
  mass density: 810.408 ± 0.47 kg/m3
290.65 K, x2 = 0.6
  speed of sound: 1190.1 ± 2.1 m/s
  mass density: 796.665 ± 0.49 kg/m3
290.65 K, x2 = 0.701
  speed of sound: 1160.5 ± 2.1 m/s
  mass density: 783.488 ± 0.51 kg/m3
290.65 K, x2 = 0.822
  speed of sound: 1124.5 ± 2.1 m/s
  mass density: 767.243 ± 0.54 kg/m3
290.65 K, x2 = 0.899
  speed of sound: 1100.7 ± 2.1 m/s
  mass density: 756.516 ± 0.55 kg/m3
290.65 K, x2 = 0.948
  speed of sound: 1085.4 ± 2.1 m/s
  mass density: 749.532 ± 0.56 kg/m3
293.15 K, x2 = 0
  speed of sound: 1339.4 ± 2.1 m/s
  mass density: 866.856 ± 0.37 kg/m3
293.15 K, x2 = 0.046
  speed of sound: 1326.8 ± 2.1 m/s
  mass density: 861.653 ± 0.4 kg/m3
293.15 K, x2 = 0.106
  speed of sound: 1312.7 ± 2.1 m/s
  mass density: 854.698 ± 0.41 kg/m3
293.15 K, x2 = 0.212
  speed of sound: 1285.5 ± 2.1 m/s
  mass density: 842.406 ± 0.42 kg/m3
293.15 K, x2 = 0.299
  speed of sound: 1262.8 ± 2.1 m/s
  mass density: 831.951 ± 0.44 kg/m3
293.15 K, x2 = 0.402
  speed of sound: 1234.6 ± 2.1 m/s
  mass density: 819.3 ± 0.46 kg/m3
293.15 K, x2 = 0.503
  speed of sound: 1209.2 ± 2.1 m/s
  mass density: 808.048 ± 0.47 kg/m3
293.15 K, x2 = 0.6
  speed of sound: 1179 ± 2.1 m/s
  mass density: 794.26 ± 0.5 kg/m3
293.15 K, x2 = 0.701
  speed of sound: 1149.3 ± 2.1 m/s
  mass density: 781.04 ± 0.52 kg/m3
293.15 K, x2 = 0.822
  speed of sound: 1113.2 ± 2.1 m/s
  mass density: 764.736 ± 0.54 kg/m3
293.15 K, x2 = 0.899
  speed of sound: 1089.2 ± 2.1 m/s
  mass density: 753.964 ± 0.56 kg/m3
293.15 K, x2 = 0.948
  speed of sound: 1073.8 ± 2.1 m/s
  mass density: 746.956 ± 0.57 kg/m3
295.65 K, x2 = 0
  speed of sound: 1328.9 ± 2.1 m/s
  mass density: 864.66 ± 0.37 kg/m3
295.65 K, x2 = 0.046
  speed of sound: 1316.3 ± 2.1 m/s
  mass density: 859.445 ± 0.4 kg/m3
295.65 K, x2 = 0.106
  speed of sound: 1302 ± 2.1 m/s
  mass density: 852.469 ± 0.41 kg/m3
295.65 K, x2 = 0.212
  speed of sound: 1274.8 ± 2.1 m/s
  mass density: 840.144 ± 0.43 kg/m3
295.65 K, x2 = 0.299
  speed of sound: 1252 ± 2.1 m/s
  mass density: 829.658 ± 0.44 kg/m3
295.65 K, x2 = 0.402
  speed of sound: 1223.7 ± 2.1 m/s
  mass density: 816.97 ± 0.46 kg/m3
295.65 K, x2 = 0.503
  speed of sound: 1198.2 ± 2.1 m/s
  mass density: 805.684 ± 0.48 kg/m3
295.65 K, x2 = 0.6
  speed of sound: 1167.8 ± 2.1 m/s
  mass density: 791.851 ± 0.5 kg/m3
295.65 K, x2 = 0.701
  speed of sound: 1138.1 ± 2.1 m/s
  mass density: 778.587 ± 0.52 kg/m3
295.65 K, x2 = 0.822
  speed of sound: 1101.8 ± 2.1 m/s
  mass density: 762.221 ± 0.54 kg/m3
295.65 K, x2 = 0.899
  speed of sound: 1077.7 ± 2.1 m/s
  mass density: 751.405 ± 0.56 kg/m3
295.65 K, x2 = 0.948
  speed of sound: 1062.3 ± 2.1 m/s
  mass density: 744.369 ± 0.57 kg/m3
298.15 K, x2 = 0
  speed of sound: 1318.4 ± 2.1 m/s
  mass density: 862.459 ± 0.38 kg/m3
298.15 K, x2 = 0.046
  speed of sound: 1306 ± 2.1 m/s
  mass density: 857.231 ± 0.4 kg/m3
298.15 K, x2 = 0.106
  speed of sound: 1291.4 ± 2.1 m/s
  mass density: 850.237 ± 0.41 kg/m3
298.15 K, x2 = 0.212
  speed of sound: 1264.1 ± 2.1 m/s
  mass density: 837.881 ± 0.43 kg/m3
298.15 K, x2 = 0.299
  speed of sound: 1241.2 ± 2.1 m/s
  mass density: 827.364 ± 0.45 kg/m3
298.15 K, x2 = 0.402
  speed of sound: 1212.7 ± 2.1 m/s
  mass density: 814.636 ± 0.46 kg/m3
298.15 K, x2 = 0.503
  speed of sound: 1187.3 ± 2.1 m/s
  mass density: 803.312 ± 0.48 kg/m3
298.15 K, x2 = 0.6
  speed of sound: 1156.8 ± 2.1 m/s
  mass density: 789.435 ± 0.51 kg/m3
298.15 K, x2 = 0.701
  speed of sound: 1127 ± 2.1 m/s
  mass density: 776.124 ± 0.52 kg/m3
298.15 K, x2 = 0.822
  speed of sound: 1090.5 ± 2.1 m/s
  mass density: 759.695 ± 0.55 kg/m3
298.15 K, x2 = 0.899
  speed of sound: 1066.3 ± 2.1 m/s
  mass density: 748.835 ± 0.56 kg/m3
298.15 K, x2 = 0.948
  speed of sound: 1050.8 ± 2.1 m/s
  mass density: 741.772 ± 0.57 kg/m3
300.65 K, x2 = 0
  speed of sound: 1307.9 ± 2.1 m/s
  mass density: 860.256 ± 0.38 kg/m3
300.65 K, x2 = 0.046
  speed of sound: 1295.8 ± 2.1 m/s
  mass density: 855.014 ± 0.41 kg/m3
300.65 K, x2 = 0.106
  speed of sound: 1280.9 ± 2.1 m/s
  mass density: 848.001 ± 0.42 kg/m3
300.65 K, x2 = 0.212
  speed of sound: 1253.5 ± 2.1 m/s
  mass density: 835.613 ± 0.43 kg/m3
300.65 K, x2 = 0.299
  speed of sound: 1230.5 ± 2.1 m/s
  mass density: 825.064 ± 0.45 kg/m3
300.65 K, x2 = 0.402
  speed of sound: 1201.5 ± 2.1 m/s
  mass density: 812.278 ± 0.47 kg/m3
300.65 K, x2 = 0.503
  speed of sound: 1176.4 ± 2.1 m/s
  mass density: 800.937 ± 0.49 kg/m3
300.65 K, x2 = 0.6
  speed of sound: 1145.7 ± 2.1 m/s
  mass density: 787.011 ± 0.51 kg/m3
300.65 K, x2 = 0.701
  speed of sound: 1115.9 ± 2.1 m/s
  mass density: 773.654 ± 0.53 kg/m3
300.65 K, x2 = 0.822
  speed of sound: 1079.2 ± 2.1 m/s
  mass density: 757.162 ± 0.55 kg/m3
300.65 K, x2 = 0.899
  speed of sound: 1054.9 ± 2.1 m/s
  mass density: 746.257 ± 0.57 kg/m3
300.65 K, x2 = 0.948
  speed of sound: 1039.4 ± 2.1 m/s
  mass density: 739.163 ± 0.58 kg/m3
303.15 K, x2 = 0
  speed of sound: 1297.5 ± 2.1 m/s
  mass density: 858.047 ± 0.38 kg/m3
303.15 K, x2 = 0.046
  speed of sound: 1285.5 ± 2.1 m/s
  mass density: 852.795 ± 0.41 kg/m3
303.15 K, x2 = 0.106
  speed of sound: 1270.4 ± 2.1 m/s
  mass density: 845.762 ± 0.42 kg/m3
303.15 K, x2 = 0.212
  speed of sound: 1242.9 ± 2.1 m/s
  mass density: 833.338 ± 0.44 kg/m3
303.15 K, x2 = 0.299
  speed of sound: 1219.8 ± 2.1 m/s
  mass density: 822.758 ± 0.45 kg/m3
303.15 K, x2 = 0.402
  speed of sound: 1190.7 ± 2.1 m/s
  mass density: 809.93 ± 0.47 kg/m3
303.15 K, x2 = 0.503
  speed of sound: 1165.5 ± 2.1 m/s
  mass density: 798.555 ± 0.49 kg/m3
303.15 K, x2 = 0.6
  speed of sound: 1134.2 ± 2.1 m/s
  mass density: 784.554 ± 0.51 kg/m3
303.15 K, x2 = 0.701
  speed of sound: 1104.8 ± 2.1 m/s
  mass density: 771.175 ± 0.53 kg/m3
303.15 K, x2 = 0.822
  speed of sound: 1068 ± 2.1 m/s
  mass density: 754.617 ± 0.56 kg/m3
303.15 K, x2 = 0.899
  speed of sound: 1043.6 ± 2.1 m/s
  mass density: 743.666 ± 0.57 kg/m3
303.15 K, x2 = 0.948
  speed of sound: 1028 ± 2.1 m/s
  mass density: 736.543 ± 0.58 kg/m3
305.65 K, x2 = 0
  speed of sound: 1287.1 ± 2.1 m/s
305.65 K, x2 = 0.046
  speed of sound: 1275.2 ± 2.1 m/s
305.65 K, x2 = 0.106
  speed of sound: 1260 ± 2.1 m/s
305.65 K, x2 = 0.212
  speed of sound: 1232.4 ± 2.1 m/s
305.65 K, x2 = 0.299
  speed of sound: 1209.2 ± 2.1 m/s
305.65 K, x2 = 0.402
  speed of sound: 1180 ± 2.1 m/s
305.65 K, x2 = 0.503
  speed of sound: 1154.7 ± 2.1 m/s
305.65 K, x2 = 0.6
  speed of sound: 1123.2 ± 2.1 m/s
305.65 K, x2 = 0.701
  speed of sound: 1093.7 ± 2.1 m/s
305.65 K, x2 = 0.822
  speed of sound: 1056.8 ± 2.1 m/s
305.65 K, x2 = 0.899
  speed of sound: 1032.3 ± 2.1 m/s
305.65 K, x2 = 0.948
  speed of sound: 1016.6 ± 2.1 m/s
